Data published in US20230287003A1, “BCL6 INHIBITORS” (Cancer Research Technology Limited, priority 2018, published 2023).
Like-named read-outs stand apart in the source and are kept apart here.

Biological target: human BCL6 BTB domain (Trx-6×His-BCL6) / BCOR-AF633 peptide (Homo sapiens (Human), UniProt P41182)
Assay: HTRF assay
Format: binding
[1] = 1 nM Trx-6×His-BCL6, 300 nM BCOR-AF633 peptide, 2 hours incubation
[2] = read-out: IC50 in the HTRF assay

Row | HTRF avg pIC50 (1 nM) [1] | Compound | further results
1 | 7.52 | Cn1c(=O)c2c(c3cc(Nc4nc(N5CCC(F)(F)[C@@H](O)C5)ncc4Cl)ccc31)N[C@@H](C1CC1)CCO2 (single isomer, unassigned) [Example 12z, (R)-10-((5-chloro-2-((S)-4,4-difluoro-3-hydroxypiperidin-1-yl)pyrimidin-4-yl)amino)-2-cyclopropyl-7-methyl-1,2,3,4-tetrahydro-[1,4]oxazepino[2,3-c]quinolin-6(7H)-one or (R)-10-((5-chloro-2((R)-4,4-difluoro-3-hydroxypiperidin-1-yl)pyrimidin-4-yl)amino)-2-cyclopropyl-7-methyl-1,2,3,4-tetrahydro-[1,4]oxazepino[2,3-c]quinolin-6(7H)-one] | –
2 | – | Cn1c(=O)c2c(c3cc(Nc4ccnc(Cl)c4C#N)ccc31)N[C@@H](C1CC1)COC2=O [Example 6b, (S)-2-chloro-4-((2-cyclopropyl-7-methyl-5,6-dioxo-1,2,3,5,6,7-hexahydro-[1,4]oxazepino[6,5-c]quinolin-10-yl)amino)nicotinonitrile] | IC50 (HTRF avg pIC50 (1 nM), 1 nM Trx-6×His-BCL6, 300 nM BCOR-AF633 peptide, 2 hours incubation): 0.166 µM
3 | 6.23 | C[C@H]1COC(=O)c2c(c3cc(Nc4nc(N5CCCC5=O)ncc4Cl)ccc3n(C)c2=O)N1 [Example 8i, (S)-10-((5-chloro-2-(2-oxopyrrolidin-1-yl)pyrimidin-4-yl)amino)-2,7-dimethyl-2,3-dihydro-[1,4]oxazepino[6,5-c]quinoline-5,6(1H,7H)-dione] | –
4 | 7.99 | Cn1c(=O)c2c(c3cc(Nc4ccncc4Cl)ccc31)N[C@@H](C1CC1)C(F)(F)CO2 [Example 4d, (S)-10-((3-chloropyridin-4-yl)amino)-2-cyclopropyl-3,3-difluoro-7-methyl-1,2,3,4-tetrahydro-[1,4]oxazepino[2,3-c] quinolin-6(7H)-one] | –
5 | 5.79 | Cn1c(=O)c2c(c3cc(Nc4nc(-n5ccc(C(F)(F)F)n5)ncc4Cl)ccc31)NC1(CCOC1)CCO2 (stereo not drawn) [Example 5j, 10′-((5-chloro-2-(3-(trifluoromethyl)-1H-pyrazol-1-yl)pyrimidin-4-yl)amino)-7′-methyl-3′,4,4′,5-tetrahydro-1′H,2H-spiro[furan-3,2′-[1,4]oxazepino[2,3-c]quinolin]-6′(7′H)-one] | –
6 | – | Cn1c(=O)c2c(c3cc(Nc4ccnc(Cl)c4C#N)ccc31)NC(CC1CC1)CO2 (stereo not drawn) [2-chloro-4-((2-(cyclopropylmethyl)-6-methyl-5-oxo-2,3,5,6-tetrahydro-1H-[1,4]oxazino[2,3-c]quinolin-9-yl)amino)nicotinonitrile] | IC50 [2]: > 2.5 µM
7 | 6.74 | C[C@H]1CN(c2ncc(Cl)c(Nc3ccc4c(c3)c3c(c(=O)n4C)OCC[C@H](C4CC4)N3)n2)CCC1(F)F (single isomer, unassigned) [Example 14a, (R)-10-((5-chloro-2-((S)-4,4-difluoro-3-methylpiperidin-1-yl)pyrimidin-4-yl)amino)-2-cyclopropyl-7-methyl-1,2,3,4-tetrahydro-[1,4]oxazepino[2,3-c]quinolin-6(7H)-one or (R)-10-((5-chloro-2-((R)-4,4-difluoro-3-methylpiperidin-1-yl)pyrimidin-4-yl)amino)-2-cyclopropyl-7-methyl-1,2,3,4-tetrahydro-[1,4]oxazepino[2,3-c]quinolin-6(7M)-one] | –
8 | – | Cn1c(=O)c2c(c3cc(Nc4ccnc(Cl)c4C#N)ccc31)NC(C)(C)COC2=O [2-chloro-4-((2,2,7-trimethyl-5,6-dioxo-1,2,3,5,6,7-hexahydro-[1,4]oxazepino[6,5-c]quinolin-10-yl)amino)nicotinonitrile] | IC50 [2]: > 2.5 µM
9 | 6.20 | Cn1c(=O)c2c(c3cc(Nc4ccnc(Cl)c4C#N)ccc31)NC(C1CC1)CO2 (stereo not drawn) [Example 1m, 2-chloro-4((2-cyclopropyl-6-methyl-5-oxo-2,3,5,6-tetrahydro-1H-[1,4]oxazino[2,3-c]quinolin-9-yl)amino)nicotinonitrile] | –
10 | 8.50 | CN1CC2(C1)CN(c1ncc(Cl)c(Nc3ccc4c(c3)c3c(c(=O)n4C)OCC(F)(F)[C@H](C4CC4)N3)n1)C2 [Example 13g, (S)-10-((5-chloro-2-(6-methyl-2,6-diazaspiro[3.3]heptan-2-yl)pyrimidin-4-yl)amino)-2-cyclopropyl-3,3-difluoro-7-methyl-1,2,3,4-tetrahydro-[1,4]oxazepino[2,3-c]quinolin-6(7H)-one: formic acid (1:2)] | –
11 | 6.38 | C[C@@H]1CN(c2ncc(Cl)c(Nc3ccc4c(c3)c3c(c(=O)n4C)C(=O)OC[C@H](C4CC4)N3)n2)C[C@H](C)C1(F)F [Example 8k, (S)-10-((5-chloro-2-((3S,5R)-4,4-difluoro-3,5-dimethylpiperidin-1-yl)pyrimidin-4-yl)amino)-2-cyclopropyl-7-methyl-2,3-dihydro-[1,4]oxazepino[6,5-c]quinoline-5,6(1H,7H)-dione] | –
12 | 6.47 | C[C@H]1COC(=O)c2c(c3cc(Nc4nc(N5CC6CCC(C6)C5)ncc4Cl)ccc3n(C)c2=O)N1 [Example 8h, (2S)-10-((2-(3-azabicyclo[3.2.1]octan-3-yl)-5-chloropyrimidin-4-yl)amino)-2,7-dimethyl-2,3-dihydro-[1,4]oxazepino[6,5-c]quinoline-5,6(1H,7H)-dione] | –
13 | 7.04 | (S)-10-((5-chloro-2-((3R,5S)-3-hydroxy-5- methylpiperidin-1-yl)pyrimidin-4-yl)amino)-2,7-dimethyl-1,2,3,4- tetrahydro-[1,4]oxazepino[2,3-c]quinolin-6(7H)-one or (S)-10-((5- chloro-2-((3S,5R)-3-hydroxy-5-methylpiperidin-1-yl)pyrimidin-4- yl)amino)-2,7-dimethyl-1,2,3,4-tetrahydro- [1,4]oxazepino[2,3-c]quinolin-6(7H)-one [Example 12k] | –
14 | 6.58 | CC1CNC(=O)c2c(c3cc(Nc4ccnc(Cl)c4C#N)ccc3n(C)c2=O)N1 (stereo not drawn) [Example 18a, 2-chloro-4-((2,7-dimethyl-5,6-dioxo-2,3,4,5,6,7-hexahydro-1H-[1,4]diazepino[6,5-c]quinolin-10-yl)amino)nicotinonitrile] | –
15 | 6.14 | Cn1c(=O)c2c(c3cc(Nc4ccnc(Cl)c4C#N)ccc31)NC1(CCOC1)CCO2 (stereo not drawn) [Example 1o, 2-chloro-4-((7′-methyl-6′-oxo-3′,4,4′,5,6′,7′-hexahydro-1′H,2H-spiro[furan-3,2′-[1,4]oxazepino[2,3-c]quinolin]-10′-yl)amino)nicotinonitrile] | –

Row | Compound | HTRF avg pIC50 (1 nM) [1] | further results
16 | CN1CC2CC(C1)N2c1ncc(Cl)c(Nc2ccc3c(c2)c2c(c(=O)n3C)OCC(F)(F)[C@H](C3CC3)N2)n1 [Example 13h, (2S)-10-((5-chloro-2-(3-methyl-3,6-diazabicyclo[3.1.1]heptan-6-yl)pyrimidin-4-yl)amino)-2-cyclopropyl-3,3-difluoro-7-methyl-1,2,3,4-tetrahydro-[1,4]oxazepino[2,3-c]quinolin-6(7H)-one: formic acid (1:1)] | 8.43 | –
17 | CC1CCc2c(c3cc(Nc4ccnc(Cl)c4C#N)ccc3n(C)c2=O)N1 (stereo not drawn) [Example 10a, 2-chloro-4-((2,6-dimethyl-5-oxo-1,2,3,4,5,6-hexahydrobenzo[h][1,6]-naphthyridin-9-yl)amino)nicotinonitrile] | 5.84 | –
18 | Cn1c(=O)c2c(c3cc(Nc4nc(N5C6CCCC5CC6)ncc4Cl)ccc31)N[C@@H](C1CC1)COC2=O [Example 8j, (2S)-10-((2-(8-azabicyclo[3.2.1]octan-8-yl)-5-chloropyrimidin-4-yl)amino)-2-cyclopropyl-7-methyl-2,3-dihydro-[1,4]oxazepino[6,5-c]quinoline-5,6(1H,7H)-dione] | 6.65 | –
